Test results reported in patent US9198906B2, “Ketoconazole enantiomer in humans” (Cortendo AB (publ), priority 2006, dated 2015).

What was measured:
[1] = test system: patients with type 2 diabetes mellitus; assay: Phase 2a trial, HbA1c (glycemic control); type: in vivo, human; conditions: for Visit 1 HbA1c mean: Visit 1 (Day 1, before first dose, baseline); for HbA1c Change vs Baseline mean / Visit 3 HbA1c mean: 14 daily doses; for Visit 3 HbA1c mean: Visit 3 (Day 15)
Description: (§1) Five (5) dose groups were studied.
(§2) The first dose of the study drug was given on Day 1 at 2200 h. Activity markers measured on Day 1 prior to administration of the drug (“Visit 1”). The last dose of study drug was given on Day 14 at 2200 h and activity markers measured on Day 15 (“Visit 3”). Measurements of safety markers were taken on Visits 1 and 3, as well as Visit 2 (Day 8) and Visit 4 (Day 28).
This test measure levels of glycated hemoglobin and reflects the average blood glucose level for a subject over the preceding 3 months (approximately). Elevated levels are common in diabetics. Lowering the hemoglobin A1c number can delay or prevent the development of serious eye, kidney, and nerve disease in individuals with diabetes.

[2] = test system: patients with type 2 diabetes mellitus; assay: Phase 2a trial, fructosamine (glycemic control); type: in vivo, human; conditions: for Fructosamine Visit 1 mean: Visit 1 (baseline, before first dose); for Fructosamine Change vs Baseline mean / Fructosamine Visit 3 mean: 14 daily doses; for Fructosamine Visit 3 mean: Visit 3 (Day 15)
Description: as §1, §2
Fructosamine levels were measured at baseline and after two weeks of therapy (see Table 4 and FIGS. 1 and 2). […] Fructosamine levels reflect blood glucose levels over the preceding 2-3 weeks.

[3] = test system: patients with type 2 diabetes mellitus; assay: Phase 2a trial, total cholesterol; type: in vivo, human; conditions: for Total cholesterol Visit 1 mean: Visit 1 (baseline, before first dose); for Total cholesterol Change mean / Total cholesterol Mean % change / Total cholesterol Visit 3 mean: 14 daily doses; for Total cholesterol Visit 3 mean: Visit 3 (Day 15)
Description: as §1, §2

[4] = test system: patients with type 2 diabetes mellitus; assay: Phase 2a trial, LDL cholesterol; type: in vivo, human; conditions: for LDL cholesterol Visit 1 mean: Visit 1 (baseline, before first dose); for LDL cholesterol Mean % change / LDL cholesterol change mean / LDL cholesterol Visit 3 mean: 14 daily doses; for LDL cholesterol Visit 3 mean: Visit 3 (Day 15)
Description: as §1, §2

[5] = test system: patients with type 2 diabetes mellitus; assay: Phase 2a trial, continuous blood pressure monitoring; type: in vivo, human; conditions: Visits 1 and 3, 14 daily doses
Description: as §1
Continuous blood pressure monitoring was performed during Visits 1 and 3.

[6] = test system: patients with type 2 diabetes mellitus; assay: Phase 2a trial, C-reactive protein (marker of inflammation); type: in vivo, human; conditions: for C-Reactive Protein (CRP) Visit 1 mean: Visit 1 (baseline, before first dose); for C-Reactive Protein (CRP) Visit 3 mean: Visit 3 (Day 15)
Description: as §1, §2

[7] = test system: patients with type 2 diabetes mellitus; assay: Phase 2a trial, liver function tests (AST/ALT/AP)
Description: as §2

[8] = plasma; Beagle dogs, racemic ketoconazole 30 mg/dog intravenous bolus
Description: The pharmacokinetics of each of the ketoconazole enantiomers was studied following intravenous administration of racemic ketoconazole. Racemic ketoconazolewas dissolved in ethanol to 60 mg/ml. Each of three Beagle dogs was administered 0.5 ml bolus (30 mg/dog) intravenously.
Blood was collected from each dog prior to dosing (“0 min”) and at 2, 5, 10, 15, 30 min, and 1, 2, 4, 6, 8, and 24 hrs post-dosing. At each timepoint, blood (0.3 mL/sample) was collected and placed into labeled Microtainer® tubes with heparin as the anti-coagulant. The heparinized blood was centrifuged, and the supernatant pipetted off into another set of labeled Eppendorf® tubes. The derived plasma samples were analyzed for each of the two ketoconazole enantiomers (2S,4R and 2R,4S) and pharmacokinetic parameters determined for each of the enantiomers.

[9] = target: T1, 14a-lanosterol demethylase (Rattus norvegicus, UniProt Q64654); conditions: compared with the other (2R,4S) enantiomer; Rotstein et al. 1992; cited from earlier work
T1 sequence (Q64654 1-503): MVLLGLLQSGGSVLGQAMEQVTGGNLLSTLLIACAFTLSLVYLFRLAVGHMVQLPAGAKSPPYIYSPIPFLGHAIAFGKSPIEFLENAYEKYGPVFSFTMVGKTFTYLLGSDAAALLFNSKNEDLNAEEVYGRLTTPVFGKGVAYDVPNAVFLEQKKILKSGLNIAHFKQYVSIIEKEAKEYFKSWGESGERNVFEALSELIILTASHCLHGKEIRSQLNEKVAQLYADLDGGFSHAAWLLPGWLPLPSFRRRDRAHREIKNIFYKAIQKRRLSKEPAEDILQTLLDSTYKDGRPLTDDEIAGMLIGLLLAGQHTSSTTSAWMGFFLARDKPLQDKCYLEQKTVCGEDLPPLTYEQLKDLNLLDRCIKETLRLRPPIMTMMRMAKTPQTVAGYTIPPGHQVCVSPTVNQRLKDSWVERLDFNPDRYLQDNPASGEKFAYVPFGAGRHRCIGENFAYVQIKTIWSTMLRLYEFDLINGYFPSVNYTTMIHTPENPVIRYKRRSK

[10] = test system: patients with type 2 diabetes mellitus; assay: Phase 2a trial, fasting glucose; conditions: two weeks of treatment
Description: The secondary objective was to determine the pharmacokinetic (PK) profile in plasma of the 2S,4R enantiomer after a single dosing and after fourteen daily doses. In addition the pharmacodynamic activity of fourteen daily doses of the 2S,4R enantiomer, as reflected by changes in blood pressure, total and LDL cholesterol, CRP, plasma and salivary cortisol, cortisol binding globulin, measures of glycemic control (fructosamine, HbA1c and fasting blood glucose levels).
Five (5) dose groups were studied. The dose groups are as follows (N=subjects who completed the study):

[11] = Subject 02-002, 200 mg DIO-902, Screening Visit
[12] = Subject 02-002, 200 mg DIO-902, Visit 1 (pre-1st dose)
[13] = Subject 02-002, 200 mg DIO-902, Visit 2
[14] = Subject 02-002, 200 mg DIO-902, Visit 3 (last dose)
[15] = Subject 04-004, 400 mg DIO-902, Screening Visit
[16] = Subject 04-004, 400 mg DIO-902, Visit 1 (pre-1st dose)
[17] = Subject 04-004, 400 mg DIO-902, Visit 2
[18] = Subject 04-004, 400 mg DIO-902, Visit 3 (last dose)
[19] = Subject 04-010, 400 mg DIO-902, Screening Visit
[20] = Subject 04-010, 400 mg DIO-902, Visit 1 (pre-1st dose)
[21] = Subject 04-010, 400 mg DIO-902, Visit 2
[22] = Subject 04-010, 400 mg DIO-902, Visit 3 (last dose)

2S,4R ketoconazole [DIO-902]
Visit 1 HbA1c mean ([1]; 200 mg po QD group): 8.18%
HbA1c Change vs Baseline mean ([1]; 200 mg po QD): −0.32%
Visit 3 HbA1c mean ([1]; 200 mg po QD): 7.86%
Visit 1 HbA1c mean ([1]; 400 mg po QD group): 7.88%
HbA1c Change vs Baseline mean ([1]; 400 mg po QD): −0.18%
Visit 3 HbA1c mean ([1]; 400 mg po QD): 7.70%
Visit 1 HbA1c mean ([1]; 600 mg po QD group): 9.10%
HbA1c Change vs Baseline mean ([1]; 600 mg po QD): −0.47%
Visit 3 HbA1c mean ([1]; 600 mg po QD): 8.63%
effect on HbA1c ([1]; administration for 14 days): trends toward a reduction
Fructosamine Visit 1 mean ([2]; 200 mg po QD group): 262 µmol/L
Fructosamine Change vs Baseline mean ([2]; 200 mg po QD): -12.20 µmol/L
Fructosamine Visit 3 mean ([2]; 200 mg po QD): 249.80 µmol/L
Fructosamine Visit 1 mean ([2]; 400 mg po QD group): 271.00 µmol/L
Fructosamine Change vs Baseline mean ([2]; 400 mg po QD): -8.33 µmol/L
Fructosamine Visit 3 mean ([2]; 400 mg po QD): 262.67 µmol/L
Fructosamine Visit 1 mean ([2]; 600 mg po QD group): 276.33 µmol/L
Fructosamine Change vs Baseline mean ([2]; 600 mg po QD): -29.33 µmol/L
Fructosamine Visit 3 mean ([2]; 600 mg po QD): 247.00 µmol/L
effect on fructosamine ([2]; administration for 14 days): trends toward a reduction
Total cholesterol Visit 1 mean ([3]; 200 mg po QD group): 227.20 mg/dL
Total cholesterol Change mean ([3]; 200 mg po QD): -26.10 mg/dL
Total cholesterol Mean % change ([3]; 200 mg po QD): −11.66%
Total cholesterol Visit 3 mean ([3]; 200 mg po QD): 202.45 mg/dL
Total cholesterol Visit 1 mean ([3]; 400 mg po QD group): 224.50 mg/dL
Total cholesterol Change mean ([3]; 400 mg po QD): -34.00 mg/dL
Total cholesterol Mean % change ([3]; 400 mg po QD): −15.35%
Total cholesterol Visit 3 mean ([3]; 400 mg po QD): 190.50 mg/dL
Total cholesterol Visit 1 mean ([3]; 600 mg po QD group): 195.33 mg/dL
Total cholesterol Change mean ([3]; 600 mg po QD): -48.75 mg/dL
Total cholesterol Mean % change ([3]; 600 mg po QD): −29.97%
Total cholesterol Visit 3 mean ([3]; 600 mg po QD): 130.33 mg/dL
effect on total cholesterol ([3]; two-week administration): Statistically significant, dose dependent decreases
LDL cholesterol Visit 1 mean ([4]; 200 mg po QD group): 141.60 mg/dL
LDL cholesterol Mean % change ([4]; 200 mg po QD): −11.39%
LDL cholesterol change mean ([4]; 200 mg po QD): -17.20 mg/dL
LDL cholesterol Visit 3 mean ([4]; 200 mg po QD): 124.40 mg/dL
LDL cholesterol Visit 1 mean ([4]; 400 mg po QD group): 133.33 mg/dL
LDL cholesterol Mean % change ([4]; 400 mg po QD): −27.44%
LDL cholesterol change mean ([4]; 400 mg po QD): -35.50 mg/dL
LDL cholesterol Visit 3 mean ([4]; 400 mg po QD): 97.83 mg/dL
LDL cholesterol Visit 1 mean ([4]; 600 mg po QD group): 125.67 mg/dL
LDL cholesterol Mean % change ([4]; 600 mg po QD): −42.14%
LDL cholesterol change mean ([4]; 600 mg po QD): -41.25 mg/dL
LDL cholesterol Visit 3 mean ([4]; 600 mg po QD): 70.67 mg/dL
effect on LDL-C ([4]; two-week administration): Statistically significant, dose dependent decreases
effect on blood pressure readings [5]: no reductions
C-Reactive Protein (CRP) Visit 1 mean ([6]; 200 mg po QD group): 6.91 mg/L
CRP Mean % change vs baseline ([6]; 200 mg po QD, 14 daily doses): −19.8%
C-Reactive Protein (CRP) Visit 3 mean ([6]; 200 mg po QD, 14 daily doses): 4.78 mg/L
C-Reactive Protein (CRP) Visit 1 mean ([6]; 400 mg po QD group): 4.02 mg/L
CRP Mean % change vs baseline ([6]; 400 mg po QD, 14 daily doses): −27.35%
C-Reactive Protein (CRP) Visit 3 mean ([6]; 400 mg po QD, 14 daily doses): 2.95 mg/L
C-Reactive Protein (CRP) Visit 1 mean ([6]; 600 mg po QD group): 8.35 mg/L
CRP Mean % change vs baseline ([6]; 600 mg po QD, 14 daily doses): −48.64%
C-Reactive Protein (CRP) Visit 3 mean ([6]; 600 mg po QD, 14 daily doses): 5.05 mg/L
effect on CRP ([6]; 14 daily doses): dose-dependent decrease
evidence of hepatotoxicity ([7]; 14 daily doses): not observed
ALT [7, 11]: 30 u/L
AP [7, 11]: 110 u/L
AST [7, 11]: 58 u/L
ALT [7, 12]: 22 u/L
AP [7, 12]: 100 u/L
AST [7, 12]: 34 u/L
ALT [7, 13]: 21 u/L
AP [7, 13]: 103 u/L
AST [7, 13]: 30 u/L
ALT [7, 14]: 19 u/L
AP [7, 14]: 97 u/L
AST [7, 14]: 35 u/L
ALT [7, 15]: 25 u/L
AP [7, 15]: 132 u/L
AST [7, 15]: 48 u/L
ALT [7, 16]: 25 u/L
AP [7, 16]: 108 u/L
AST [7, 16]: 49 u/L
ALT [7, 17]: 28 u/L
AP [7, 17]: 125 u/L
AST [7, 17]: 49 u/L
ALT [7, 18]: 25 u/L
AP [7, 18]: 130 u/L
AST [7, 18]: 46 u/L
ALT [7, 19]: 27 u/L
AP [7, 19]: 73 u/L
AST [7, 19]: 49 u/L
ALT [7, 20]: 24 u/L
AP [7, 20]: 60 u/L
AST [7, 20]: 48 u/L
ALT [7, 21]: 14 u/L
AP [7, 21]: 82 u/L
AST [7, 21]: 40 u/L
ALT [7, 22]: 19 u/L
AP [7, 22]: 64 u/L
AST [7, 22]: 38 u/L
liver function test values outside the normal range at baseline (hepato-protection, words) ([7]; two patients): normalized
clearance [8]: 8.08 mL/min/kg
terminal half life [8]: 1.397 h
activity against 14a-lanosterol demethylase [9]: more active
Reductions in fasting glucose levels [10]: up to 15 mg/dL
